Experimental data taken from ChEMBL document CHEMBL5584232, “Hijacking monopolar spindle 1 (MPS1) for various cancer types by small molecular inhibitors: Deep insights from a decade of research and patents” (Eur J Med Chem, 2024).
Blank lines part the entries; values can stand above or below the molecule they belong to.

Legend:
[1] = tested on: A549; test: Growth inhibition of human A549 cells incubated for 48 hrs by SRB assay; assay type: functional
[2] = tested on: HCT-116; test: Antitumor activity against human HCT-116 cells xenografted in athymic nude BALB/c mouse assessed as reduction in tumor growth at 12.5 mg/kg, ip administered every other day and measured every other day for 16 days; assay type: functional; details: HCT-116, 384 h, time 16 day, read-out: TGI
[3] = target: CYP450 (Homo sapiens, UniProt P04798+P05177+P05181+P08684+P10632+P10635+P11509+P11712+P13584+P20813+P20815+P20853+P24462+P24903+P33260+P33261+P51589+P78329+P98187+Q02928+Q08477+Q16678+Q16696+Q5TCH4+Q6VVX0+Q7Z449+Q8TAV3+Q96SQ9+Q9HB55); test: Inhibition of CYP450 (unknown origin); assay type: ADME, protein assay
[4] = tested on: HCT-116; test: Growth inhibition of human HCT-116 cells incubated for 48 hrs by SRB assay; assay type: functional
[5] = tested on: MDA-MB-468; test: Growth inhibition of human MDA-MB-468 cells incubated for 48 hrs by SRB assay; assay type: functional
[6] = Metabolic stability in mouse liver microsomes assessed as drug metabolism measured after 30 mins; assay type: ADME, Microsome; details: read-out: Drug metabolism
[7] = target: T1, Aurora kinase A (Homo sapiens, UniProt O14965); test: Inhibition of AURORA-A (unknown origin)
T1 sequence (O14965 whole entry): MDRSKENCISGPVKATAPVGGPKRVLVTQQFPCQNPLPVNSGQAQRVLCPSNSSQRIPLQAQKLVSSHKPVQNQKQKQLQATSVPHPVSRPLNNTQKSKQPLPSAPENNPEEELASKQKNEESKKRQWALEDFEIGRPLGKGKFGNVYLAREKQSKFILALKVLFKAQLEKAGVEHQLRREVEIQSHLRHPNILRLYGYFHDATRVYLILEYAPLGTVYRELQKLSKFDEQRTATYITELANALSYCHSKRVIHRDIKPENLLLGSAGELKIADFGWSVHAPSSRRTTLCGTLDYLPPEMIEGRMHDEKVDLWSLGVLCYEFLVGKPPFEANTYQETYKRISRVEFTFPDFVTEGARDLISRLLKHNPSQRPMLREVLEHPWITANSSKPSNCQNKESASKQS

[8] = Clearance in rat at 1 mg/kg, po; assay type: ADME, organism-based; details: in vivo
[9] = AUC in mouse; assay type: ADME, organism-based; details: in vivo
[10] = Half life in mouse; assay type: ADME, organism-based; details: in vivo
[11] = tested on: COLO 205; test: Antiproliferative activity against human COLO 205 cells assessed as reduction in cell viability incubated for 48 hrs by MTT assay; assay type: functional, cell-based; details: COLO 205, 48 h
[12] = Intrinsic clearance in human liver microsomes; assay type: ADME, Microsome
[13] = tested on: A549; test: Antiproliferative activity against human A549 cells assessed as reduction in cell growth incubated for 48 hrs by MTT assay; assay type: functional, cell-based; details: A549, 48 h
[14] = tested on: CAL-51; test: Antiproliferative activity against human CAL-51 cells assessed as inhibition of cell growth incubated for 72 hrs by MTT assay; assay type: functional, cell-based; details: CAL-51, 72 h
[15] = Cmax in Sprague-Dawley rat at 3 mg/kg, po by LC-MS/MS analysis; assay type: ADME, organism-based; details: in vivo
[16] = target: T2, Dual specificity protein kinase TTK (Homo sapiens, UniProt P33981); test: Inhibition of MPS1 (unknown origin)
T2 sequence (P33981 whole entry): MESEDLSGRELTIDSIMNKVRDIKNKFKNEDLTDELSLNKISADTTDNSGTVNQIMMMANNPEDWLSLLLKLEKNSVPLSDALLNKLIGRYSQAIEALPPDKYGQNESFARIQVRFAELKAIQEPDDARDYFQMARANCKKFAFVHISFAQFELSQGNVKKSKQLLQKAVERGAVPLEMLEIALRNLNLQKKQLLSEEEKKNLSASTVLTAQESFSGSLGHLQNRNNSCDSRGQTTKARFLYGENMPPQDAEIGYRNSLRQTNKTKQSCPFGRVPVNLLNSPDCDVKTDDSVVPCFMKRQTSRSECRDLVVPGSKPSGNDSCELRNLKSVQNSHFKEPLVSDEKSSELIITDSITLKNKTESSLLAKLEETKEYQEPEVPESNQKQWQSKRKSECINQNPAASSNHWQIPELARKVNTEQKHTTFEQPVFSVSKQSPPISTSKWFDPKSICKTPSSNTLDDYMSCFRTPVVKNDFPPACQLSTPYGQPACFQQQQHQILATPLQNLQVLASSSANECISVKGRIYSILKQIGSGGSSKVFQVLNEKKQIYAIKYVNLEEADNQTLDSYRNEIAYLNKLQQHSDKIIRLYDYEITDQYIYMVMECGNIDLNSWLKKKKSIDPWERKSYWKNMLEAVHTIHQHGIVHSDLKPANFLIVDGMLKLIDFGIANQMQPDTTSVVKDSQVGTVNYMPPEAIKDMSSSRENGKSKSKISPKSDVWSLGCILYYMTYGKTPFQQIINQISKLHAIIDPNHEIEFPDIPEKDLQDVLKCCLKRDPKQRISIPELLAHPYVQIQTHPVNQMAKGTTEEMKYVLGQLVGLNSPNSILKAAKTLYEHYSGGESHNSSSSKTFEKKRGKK

[17] = Cmax in ICR mouse at 3 mg/kg, po; assay type: ADME, organism-based; details: in vivo
[18] = Oral bioavailability in ICR mouse at 5 mg/kg by LC-MS/MS analysis; assay type: ADME, organism-based; details: in vivo
[19] = AUC in ICR mouse at 3 mg/kg, po and measured after 24 hrs by LC-MS/MS analysis; assay type: ADME, organism-based; details: in vivo
[20] = tested on: CAL-51; test: Antiproliferative activity against human CAL-51 cells assessed as reduction in cell viability incubated for 72 hrs by MTT assay; assay type: functional, cell-based; details: CAL-51, 72 h
[21] = AUC in Sprague-Dawley rat at 3 mg/kg, po by LC-MS/MS analysis; assay type: ADME, organism-based; details: in vivo
[22] = target: Cyclin-dependent kinase 2 (Homo sapiens, UniProt P24941); test: Inhibition of CDK2 (unknown origin)
[23] = Oral bioavailability in rat at 1 mg/kg; assay type: ADME, organism-based; details: in vivo
[24] = target: T2, Dual specificity protein kinase TTK; test: Inhibition of human recombinant TTK expressed in Escherichia coli Rossetta 2 (DE3) incubated for 1 hr by TR-FRET assay
[25] = target: Mitogen-activated protein kinase 8 (Homo sapiens, UniProt P45983); test: Inhibition of JNK1 (unknown origin) using ATF2 as substrate after 1 hr by Lanthascreen TR-FRET assay
Mitogen-activated protein kinase 8, sequence (P45983 whole entry): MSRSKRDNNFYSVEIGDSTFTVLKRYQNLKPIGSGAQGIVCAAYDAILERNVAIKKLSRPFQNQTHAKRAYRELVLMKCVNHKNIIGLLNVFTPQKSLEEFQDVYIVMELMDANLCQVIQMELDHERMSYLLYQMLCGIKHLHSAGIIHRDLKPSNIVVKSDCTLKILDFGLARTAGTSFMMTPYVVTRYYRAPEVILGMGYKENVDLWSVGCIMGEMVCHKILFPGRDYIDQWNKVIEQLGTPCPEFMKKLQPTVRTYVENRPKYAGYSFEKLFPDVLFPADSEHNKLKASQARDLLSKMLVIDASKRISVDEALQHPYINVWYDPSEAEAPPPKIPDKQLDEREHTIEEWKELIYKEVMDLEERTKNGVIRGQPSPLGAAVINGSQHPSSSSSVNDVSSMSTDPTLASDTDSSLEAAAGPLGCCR

SMILES: NS(=O)(=O)c1cccc(-c2n[nH]c3ccc(NC(=O)C(c4ccsc4)N4CCCC4)cc23)c1 (stereo not given)
GI50 [1]: 100 nM
inhibition in vivo at 12.5 mg/kg [2]: 66%
IC50 [3]: 900 nM
GI50 [4]: 100 nM
GI50 [5]: 70 nM

SMILES: CN(C)C(=O)c1ccc(Nc2cc3c(cn2)cc(C(=O)N(C)C)n3C(=O)OC(C)(C)C)c(Cl)c1
metabolised at 0.5 h [6]: 48%
IC50 [7]: 23000 nM

SMILES: CC(=O)Nc1cccc(-c2n[nH]c3cc(-c4cnn(C)c4)c(NC4CCCCC4)cc23)c1
CL/F [8]: 33 mL/min/kg

SMILES: CCOc1cc2c(-c3cccc(S(N)(=O)=O)c3)n[nH]c2cc1-c1cnn(C)c1
IC50 [13]: 386 nM

SMILES: COc1cc(C(=O)NCC(C)(C)O)ccc1Nc1nc(OC2CCCC2)c2c(-c3ccc4nc(C)oc4c3)c[nH]c2n1
IC50 [14]: 60 nM

SMILES: C[C@H](Oc1cc(C(=O)N(C)C)ccc1Nc1nc(O[C@H]2CC[C@@](C)(O)CC2)c2c(Cl)c[nH]c2n1)C(F)(F)F
Cmax [15]: 4.35 µM
IC50 [16]: 0.7 nM
Cmax [17]: 5.2 µM
bioavailability [18]: 60%
AUC at 24 h [19]: 22.5 µM·h
IC50 [20]: 10 nM
AUC [21]: 26.3 µM·h

SMILES: CNC(=O)c1ccc(Nc2nc(O[C@H]3CCOC3)c3c(-c4ccc5nc(C)oc5c4)c[nH]c3n2)c(OC)c1
IC50 [14]: 18 nM

SMILES: CNC(=O)c1ccc(Nc2nc(OC3CCCC3)c3c(-c4cc[nH]n4)c[nH]c3n2)c(OC)c1
IC50 [14]: 400 nM

SMILES: CN(C)C(=O)c1cc2cnc(Nc3ccc(-c4cncn4C)cc3Cl)cc2n1C(=O)OC(C)(C)C
IC50 [22]: > 100000 nM
metabolised at 0.5 h [6]: 28%
IC50 [7]: > 40000 nM

SMILES: CCOc1ccc2[nH]nc(-c3cccc(NC(C)=O)c3)c2c1
IC50 [25]: 150 nM

Second part, the molecule after the results:

AUC [9]: 2.23 µM·h
half-life [10]: 4.3 h
IC50 [11]: 100 nM
SMILES: CCC(=O)N[C@H]1CC[C@@H](n2c(=O)cc(C)c3cnc(Nc4ccc(N5CCN(C(=O)CCC#Cc6ccc7c(c6)CN(C6CCC(=O)NC6=O)C7=O)CC5)cc4OC)nc32)CC1 (stereo not given in full)

CLH [12]: 8 µL/min/µg
SMILES: CCOc1cc(-c2nncn2C)ccc1Nc1ncc2cc(C)nc(NCC(C)(C)C)c2n1 [BOS-172722]

IC50 [13]: 386 nM
SMILES: CCOc1cc2c(-c3ccc(C)c(S(N)(=O)=O)c3)n[nH]c2cc1-c1cnn(C)c1

bioavailability [23]: 17%
SMILES: Cn1cc(-c2cc3[nH]nc(-c4cccc(S(N)(=O)=O)c4)c3cc2OC2CCCCC2)cn1

IC50 [24]: 15 nM
SMILES: COc1cc(N2CCC(O)CC2)ccc1Nc1nc(Nc2ccccc2S(=O)(=O)C(C)C)c2nc[nH]c2n1
